Laboratory results reported in the supplement of paper PMC10307832.

Compound: C1CN(CCN1)C2=CC=C(C=C2)C3=CN4C(=C(C=N4)C5=CC=NC6=CC=CC=C56)N=C3 [DM3189] + NC(=O)Nc1cc(-c2cccc(F)c2)sc1C(=O)N[C@H]1CCCNC1 [AZD7762] (partner 0.2 µM)
Experiment: relative viability (nuclei count vs DMSO), 5 days (fraction); higher = more cells survive
In short: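 Dosing by pin tool came one day after lung cancer cell lines were seeded in 1536-well plates, using either one drug or a fixed anchor-drug dose plus five library-drug doses (not always all listed) in √10 steps. After 5 days, nuclei were counted on 4× images. Relative viability is treated-well nuclei count divided by vehicle-well nuclei count, and values are medians of duplicate plates.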

Cell Line	relative viability (first compound 0.08 µM)	relative viability (first compound 0.253 µM)	relative viability (first compound 0.8 µM)	relative viability (first compound 2.53 µM)
201T	0.717	0.639	0.611	0.537
A-427	0.684	0.701	0.677	0.723
ABC-1	0.914	0.679	0.742	1.06
BEN	0.76	0.646	0.702	0.738
CAL-12T	0.533	0.629	0.585	0.684
ChaGo-K-1	0.919	0.857	0.605	0.83
EKVX	0.809		0.623	0.638
EMC-BAC-2	1.26	1.03	0.976	1.05
EPLC-272H	0.174	0.219	0.276	0.186
H3255	1.14	0.883	0.88	0.943
HARA	0.263	0.364	0.161	0.302
HCC-15	1.19	1.14	1.08	1.24
HCC-44	0.984	1.03	0.92	0.996
HCC-78	0.644	0.546	0.497	0.531
HCC-366	0.293	0.267	0.197	0.241
HCC-827	0.207	0.194	0.205	0.195
HOP-62	0.672	0.646	0.621	0.596
LC-2-ad	0.927	0.872	0.872	0.8
LCLC-97TM1	0.275	0.177	0.207	0.171
LCLC-103H	0.909	0.817	0.764	0.818

Cell Line	relative viability (first compound 0.08 µM)	relative viability (first compound 0.253 µM)	relative viability (first compound 0.8 µM)	relative viability (first compound 2.53 µM)
LK-2	0.252	0.153	0.225	0.219
LOU-NH91	0.825	0.73	0.642	0.683
LU99A	0.379	0.362		0.283
LXF-289	1.17	1.2	1.1	1.14
NCI-H23	0.231	0.237	0.128	0.265
NCI-H322M	0.662	0.644	0.662	0.519
NCI-H358	0.5	0.502	0.517	0.444
NCI-H441	1.25	0.862	1.16	1.35
NCI-H460	0.784	0.524	0.395	0.691
NCI-H522	0.949	0.775	0.648	0.704
NCI-H596	1.15	1.07	1.08	0.986
NCI-H647	0.626	0.408	0.4	0.277
NCI-H650	0.937	0.956	1.05	1
NCI-H727	0.613	0.602	0.629	0.526
NCI-H838	0.979	0.856	0.816	0.895
NCI-H1355	0.687	0.813	0.585	0.648
NCI-H1395	0.385	0.396		0.39
NCI-H1437	1.14	1.15	0.969	1
NCI-H1651	0.536	0.457	0.443	0.444
NCI-H1666	1.11	0.812	0.878	0.941

Cell Line	relative viability (first compound 0.08 µM)	relative viability (first compound 0.253 µM)	relative viability (first compound 0.8 µM)	relative viability (first compound 2.53 µM)
NCI-H1703	0.122	0.191	0.119	0.135
NCI-H1734	0.6	0.573	0.511	0.383
NCI-H1755	0.482	0.455	0.615	0.372
NCI-H1792	0.796	0.65	0.593	0.616
NCI-H1793	0.524	0.519	0.273	0.347
NCI-H1915	0.708	0.639	0.521	0.637
NCI-H1944	0.547	0.55	0.576	0.446
NCI-H1975	0.757	0.682	0.522	0.625
NCI-H1993	0.824	0.776	0.653	0.643
NCI-H2085	0.994	1.06	0.965	1.03
NCI-H2087	1.42	1.23	1.38	1.1
NCI-H2126	1.05	1.07	0.968	1.01
NCI-H2170	0.933	0.884	0.875	0.652
NCI-H2347	0.726	0.779	0.723	0.733
NCI-H2405	0.727	0.665	0.645	0.704
NCI-H3122	0.978	0.964	0.912	0.816
PC-3 [JPC-3]	0.957	0.884	0.814	0.791
PC-14	0.569	0.249	0.263	0.26
RERF-LC-KJ	1.51	1.11	1	0.964
SW 900	0.574		0.515	0.645
